pIC50, pKd: −log10 of the molar value. Calls of active or inactive are those of the source. No cut-off for these calls is given here.
What was measured:
HepG2 [1] = experiment: Chemosensitivity of cisplatin-treated human HepG2 cells assessed as reduction in cell viability at 0.1 to 100 uM incubated for 24 hrs CCK-8 assay; type: functional, cell-based; details: dose 0.1-100 µM
MDA-MB-231 [2] = experiment: Chemosensitivity of cisplatin-treated human MDA-MB-231 cells assessed as reduction in cell viability at 0.1 to 100 uM incubated for 24 hrs CCK-8 assay; type: functional, cell-based; details: dose 0.1-100 µM
[3] = biological target: T1, MUS81-ECE1 (Homo sapiens) (UniProt P42892+Q96NY9); experiment: Binding affinity to human GST-tagged MUS81-[…] expressed in Escherichia coli BL21(DE3)Rosetta2 cells assessed as Koff by Surface plasmon resonance analysis
MUS81-ECE2 [4] = biological target: T2, MUS81-ECE2 (Homo sapiens, UniProt P0DPD6+Q96NY9); experiment: Binding affinity to human GST-tagged MUS81-[…] expressed in Escherichia coli BL21(DE3)Rosetta2 cells assessed as dissociation constant by Surface plasmon resonance analysis
T2 sequence (P0DPD6 whole entry): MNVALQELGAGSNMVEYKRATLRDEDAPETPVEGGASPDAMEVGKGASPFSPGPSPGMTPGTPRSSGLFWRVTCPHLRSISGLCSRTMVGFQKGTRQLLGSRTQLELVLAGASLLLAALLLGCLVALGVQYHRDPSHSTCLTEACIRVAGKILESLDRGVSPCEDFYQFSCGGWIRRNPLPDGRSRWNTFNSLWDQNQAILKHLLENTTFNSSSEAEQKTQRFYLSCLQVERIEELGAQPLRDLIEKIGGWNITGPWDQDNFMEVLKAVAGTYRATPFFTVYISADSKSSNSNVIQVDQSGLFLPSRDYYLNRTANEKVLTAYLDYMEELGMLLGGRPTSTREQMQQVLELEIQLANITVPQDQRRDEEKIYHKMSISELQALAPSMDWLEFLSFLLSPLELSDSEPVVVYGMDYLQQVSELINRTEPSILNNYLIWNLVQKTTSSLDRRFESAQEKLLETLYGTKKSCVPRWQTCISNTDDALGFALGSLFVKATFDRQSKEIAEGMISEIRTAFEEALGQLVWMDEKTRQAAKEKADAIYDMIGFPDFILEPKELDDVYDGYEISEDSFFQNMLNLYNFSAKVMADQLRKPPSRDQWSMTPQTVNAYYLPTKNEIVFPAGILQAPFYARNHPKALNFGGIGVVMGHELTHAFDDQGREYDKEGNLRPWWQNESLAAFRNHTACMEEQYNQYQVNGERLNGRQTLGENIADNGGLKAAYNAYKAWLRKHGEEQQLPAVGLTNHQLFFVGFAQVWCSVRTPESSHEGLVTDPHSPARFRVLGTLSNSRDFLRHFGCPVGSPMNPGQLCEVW
T2 sequence (Q96NY9 whole entry): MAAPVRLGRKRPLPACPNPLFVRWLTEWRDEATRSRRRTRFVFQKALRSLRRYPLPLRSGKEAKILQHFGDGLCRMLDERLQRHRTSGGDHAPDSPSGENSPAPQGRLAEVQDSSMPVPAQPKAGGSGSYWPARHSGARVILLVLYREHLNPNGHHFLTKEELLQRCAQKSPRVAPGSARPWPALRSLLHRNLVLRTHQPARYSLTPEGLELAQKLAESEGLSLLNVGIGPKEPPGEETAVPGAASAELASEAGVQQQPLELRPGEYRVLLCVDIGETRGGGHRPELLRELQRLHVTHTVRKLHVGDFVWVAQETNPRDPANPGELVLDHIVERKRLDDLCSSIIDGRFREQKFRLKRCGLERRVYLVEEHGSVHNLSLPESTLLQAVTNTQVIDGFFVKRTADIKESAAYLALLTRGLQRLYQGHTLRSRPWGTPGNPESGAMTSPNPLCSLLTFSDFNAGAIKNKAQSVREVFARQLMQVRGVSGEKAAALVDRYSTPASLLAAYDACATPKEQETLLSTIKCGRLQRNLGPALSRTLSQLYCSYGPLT

HeLa [5] = experiment: Chemosensitivity of bleomycin-treated human HeLa cells assessed as reduction in cell viability at 0.1 to 100 uM incubated for 24 hrs CCK-8 assay; type: functional, cell-based; details: dose 0.1-100 µM
[6] = biological target: T1, MUS81-ECE1 (Homo sapiens); experiment: Inhibition of human GST-tagged MUS81-[…] expressed in Escherichia coli BL21(DE3)Rosetta2 cells using nHJ as substrate incubated for 15 mins by FRET based assay; details: dose 0.2-20 µM
[7] = biological target: T3, MUS81-ECE2 (Homo sapiens) (UniProt P0DPD6+Q96NY9); experiment: Inhibition of human GST-tagged MUS81-[…] expressed in Escherichia coli BL21(DE3)Rosetta2 cells using nDS as substrate incubated for 15 mins by FRET based assay; details: dose 0.2-20 µM
[8] = biological target: T1, MUS81-ECE1 (Homo sapiens); experiment: Binding affinity to human GST-tagged MUS81-[…] expressed in Escherichia coli BL21(DE3)Rosetta2 cells assessed as Kon by Surface plasmon resonance analysis
[9] = biological target: T1, MUS81-ECE1 (Homo sapiens); experiment: Inhibition of human GST-tagged MUS81-[…] expressed in Escherichia coli BL21(DE3)Rosetta2 cells using nDS as substrate incubated for 15 mins by FRET based assay; details: dose 0.2-20 µM
HeLa [10] = experiment: Inhibition of bleomycin-induced DNA-double stranded breaks in human HeLa cells assessed as reduction in gammaH2AX phosphorylation at serine 139 residue at 20 uM incubated for 1 hr by hoechst 33342 staining based immunofluorescence microscopic analysis; type: functional, cell-based
[11] = biological target: T3, MUS81-ECE2 (Homo sapiens); experiment: Binding affinity to human GST-tagged MUS81-[…] expressed in Escherichia coli BL21(DE3)Rosetta2 cells assessed as Kon by Surface plasmon resonance analysis
[12] = biological target: T3, MUS81-ECE2 (Homo sapiens); experiment: Inhibition of human GST-tagged MUS81-[…] expressed in Escherichia coli BL21(DE3)Rosetta2 cells using nHJ as substrate incubated for 15 mins by FRET based assay; details: dose 0.2-20 µM
MUS81-ECE2 [13] = biological target: T2, MUS81-ECE2; experiment: Inhibition of human GST-tagged MUS81-[…] expressed in Escherichia coli BL21(DE3)Rosetta2 cells incubated for 15 mins by FRET based assay
HepG2 [14] = experiment: Chemosensitivity of bleomycin-treated human HepG2 cells assessed as reduction in cell viability at 0.1 to 100 uM incubated for 24 hrs CCK-8 assay; type: functional, cell-based; details: dose 0.1-100 µM
MDA-MB-231 [15] = experiment: Chemosensitivity of bleomycin-treated human MDA-MB-231 cells assessed as reduction in cell viability at 0.1 to 100 uM incubated for 24 hrs CCK-8 assay; type: functional, cell-based; details: dose 0.1-100 µM
[16] = biological target: T1, MUS81-ECE1 (Homo sapiens); experiment: Inhibition of human GST-tagged MUS81-[…] expressed in Escherichia coli BL21(DE3)Rosetta2 cells using 3' FLAP as substrate incubated for 15 mins by FRET based assay; details: dose 0.2-20 µM
[17] = biological target: T3, MUS81-ECE2 (Homo sapiens); experiment: Binding affinity to human GST-tagged MUS81-[…] expressed in Escherichia coli BL21(DE3)Rosetta2 cells assessed as Koff by Surface plasmon resonance analysis
HeLa [18] = experiment: Chemosensitivity of cisplatin-treated human HeLa cells assessed as reduction in cell viability at 0.1 to 100 uM incubated for 24 hrs CCK-8 assay; type: functional, cell-based; details: dose 0.1-100 µM
[19] = biological target: T3, MUS81-ECE2 (Homo sapiens); experiment: Inhibition of human GST-tagged MUS81-[…] expressed in Escherichia coli BL21(DE3)Rosetta2 cells using 3' FLAP as substrate incubated for 15 mins by FRET based assay; details: dose 0.2-20 µM
HeLa [20] = experiment: Inhibition of bleomycin-induced DNA-double stranded breaks in human HeLa cells assessed as reduction in gammaH2AX level by Western blot analysis; type: functional, cell-based
[21] = biological target: T1, MUS81-ECE1 (Homo sapiens); experiment: Binding affinity to human GST-tagged MUS81-[…] expressed in Escherichia coli BL21(DE3)Rosetta2 cells at more than 5 uM using nDS as substrate incubated for 30 mins by electrophoretic mobility shift assay
[22] = biological target: T1, MUS81-ECE1 (Homo sapiens); experiment: Inhibition of human GST-tagged MUS81-[…] expressed in Escherichia coli BL21(DE3)Rosetta2 cells using 3' FLAP as substrate at 40 uM
A549 [23] = experiment: Chemosensitivity of cisplatin-treated human A549 cells assessed as reduction in cell viability at 0.1 to 100 uM incubated for 24 hrs CCK-8 assay; type: functional, cell-based; details: dose 0.1-100 µM
A549 [24] = experiment: Chemosensitivity of bleomycin-treated human A549 cells assessed as reduction in cell viability at 0.1 to 100 uM incubated for 24 hrs CCK-8 assay; type: functional, cell-based; details: dose 0.1-100 µM
[25] = biological target: T1, MUS81-ECE1 (Homo sapiens); experiment: Inhibition of human GST-tagged MUS81-[…] expressed in Escherichia coli BL21(DE3)Rosetta2 cells using nDS as substrate at 40 uM

K [3]	pKd (MUS81-ECE2 [4])	K [8]	K [11]	K [17]	Structure (SMILES)	Activity (HepG2 [1])	Activity (HeLa [5])	inhibition (HeLa [10])	Activity (HepG2 [14])	Activity (HeLa [18])	inhibition (HeLa [20])	further results
0.004 s⁻¹	6.22	6980 M⁻¹ s⁻¹	6420 M⁻¹ s⁻¹	0.003 s⁻¹	O=C(N/N=C/c1cc(O)c(O)cc1O)c1cc2ccccc2cc1O	inactive	inactive	Active	inactive	inactive	Active	Activity (MDA-MB-231 [2]): Active; inhibition [6]: Dose-Dependent Effect; inhibition [7]: Dose-Dependent Effect; inhibition [9]: Dose-Dependent Effect; inhibition [12]: Dose-Dependent Effect; pIC50 (MUS81-ECE2 [13]): 5.54; Activity (MDA-MB-231 [15]): Active; inhibition [16]: Dose-Dependent Effect; inhibition [19]: Dose-Dependent Effect; Activity [21]: Active
0.005 s⁻¹	5.38	934 M⁻¹ s⁻¹	1390 M⁻¹ s⁻¹	0.005 s⁻¹	O=C(N/N=C/c1ccc(O)c(O)c1)c1cc2ccccc2cc1O [DYNASORE]	inactive	inactive	inactive	inactive	inactive	inactive	inhibition [22]: Active; Activity (A549 [23]): Active; Activity (A549 [24]): Active; inhibition [25]: Active
